Data from US11180516B2, “Phosphine transition metal complex, method for producing same, and anticancer agent” (Nippon Chemical Industrial Co., Ltd., priority 2018, dated 2021).

Tests used:
[1] = system: NCI-N87 (human gastric cancer cells); assay: Anticancer activity, WST-8 viable cell assay, NCI-N87; type: cell-based; conditions: 48 hours culture, mean of three experiments, read-out: IC50 (50% cell growth inhibitory concentration)
Method: (§1) As a control, cisplatin was tested in the same way.
(§2) A549 (human lung cancer cells), NCI-H460 (human lung cancer cells), MKN45 (human gastric cancer cells), NCI-N87 (human gastric cancer cells), A2780 (human ovarian cancer cells), A2780cis (human ovarian cancer cells, cisplatin-resistant cells) were used as cancer cells, and cultured in Roswell Park Memorial Institute medium (RPMI1640) supplemented with 10 volume % fetal bovine serum and 100 Units/mL penicillin and 100 μg/mL streptomycin under 5 volume % carbon dioxide atmosphere by wet incubation at 37° C.
(§3) Cells were washed with phosphate buffered saline (PBS), the cell count was calculated, and then 5×10^4 cells/ml suspension was prepared using the same medium. The suspension was added to a sterile 96-well microplate at a density of 2500 cells/well.
(§4) Thereafter, viable cell counts were evaluated by WST-8 assay. In other words, a solution of water-soluble tetrazolium salt WST-8 was added, and then the cells were cultured in an incubator for 1 hour. Absorbance at 450 nm of water-soluble formazan generated by enzymatic activity of mitochondria in cells was measured with a microplate reader (Spectra Max PLUS; Molecular Devices). This was evaluated as viable cell counts, and 50% cell growth inhibitory concentration (IC50) was calculated. It should be noted that the mean of the values of three experiments performed in the same way was adopted for the calculation of IC50 value.

[2] = system: A2780cis (human ovarian cancer cells, cisplatin-resistant cells); assay: Anticancer activity, WST-8 viable cell assay, A2780cis; type: cell-based; conditions: 48 hours culture, mean of three experiments, read-out: IC50 (50% cell growth inhibitory concentration)
Method: as §1, §2, §3, §4

[3] = system: A549 (human lung cancer cells); assay: Anticancer activity, WST-8 viable cell assay, A549; type: cell-based; conditions: 48 hours culture, mean of three experiments, read-out: IC50 (50% cell growth inhibitory concentration)
Method: as §1, §2, §3, §4

[4] = system: A2780 (human ovarian cancer cells); assay: Anticancer activity, WST-8 viable cell assay, A2780; type: cell-based; conditions: 48 hours culture, mean of three experiments, read-out: IC50 (50% cell growth inhibitory concentration)
Method: as §1, §2, §3, §4

[5] = system: MKN45 (human gastric cancer cells); assay: Anticancer activity, WST-8 viable cell assay, MKN45; type: cell-based; conditions: 48 hours culture, mean of three experiments, read-out: IC50 (50% cell growth inhibitory concentration)
Method: as §1, §2, §3, §4

[6] = system: NCI-H460 (human lung cancer cells); assay: Anticancer activity, WST-8 viable cell assay, NCI-H460; type: cell-based; conditions: 48 hours culture, mean of three experiments, read-out: IC50 (50% cell growth inhibitory concentration)
Method: as §1, §2, §3, §4

[7] = Solubility test in aqueous surfactant solution (HPLC); conditions: 150 μL surfactant (Tween 80:propylene glycol 2:1) + 850 μL 5% by mass aqueous glucose solution
Method: The solubility was determined by the following HPLC analysis.
For the HPLC analyzer, Prominence HPLC system (LC-20AD, Shimadzu Corporation) was used. For the detector, UV detector SPD-20A (Shimadzu Corporation, detection wavelength 249 nm) was used, and for the column, XR-ODS (3 mm i.d.×100 mm, particle diameter 2.2 μm) manufactured by Shimadzu Corporation was used. The mobile phase was methanol:water:TFA=90:10:0.05 (v/v), the column temperature was 40° C., and the flow rate was 0.5 mL/min.
Each of the weighed samples was placed in 150 μL of surfactants, and the mixture was stirred sufficiently. Then, 850 μL of 5% by mass aqueous glucose solution was added, and the mixture was further stirred at room temperature (25° C.). This solution was passed through a 0.2 μm membrane filter, and the filtrate was diluted 50-fold by volume with methanol:water (9:1) to obtain a preparation solution for HPLC analysis.
The prepared samples were transferred to vials, and set in an autosampler. The analysis was performed by injecting each sample by 1 μL.
Based on the relationship between the weight of the weighed sample and the area of the peak in the obtained chromatogram, the solubility of the phosphine transition metal complex was evaluated.

Row | Compound | IC50 [1] [nM] | IC50 [2] [nM] | IC50 [3] [nM] | IC50 [4] [nM] | IC50 [5] [nM] | IC50 [6] [nM] | Solubility (25° C.) [7] [mg/mL]
1 | CP(c1ccccc1P(C)C(C)(C)C)C(C)(C)C.CP(c1ccccc1P(C)C(C)(C)C)C(C)(C)C.[Au+].[Cl-] [Example 2, bis[(S,S)-1,2-bis(t-butylmethylphosphino)benzene]gold(I) chloride] | 2100 | 560 | 580 | 1100 | 530 | 690 | 
2 | N.N.[Cl][Pt][Cl] [Cisplatin, cisplatin, reference compound] | 42000 | 28000 | 6000 | 2800 | 5200 | 3300 | 
3 | CP(c1nc2ccccc2nc1P(C)C(C)(C)C)C(C)(C)C.CP(c1nc2ccccc2nc1P(C)C(C)(C)C)C(C)(C)C.[Au+].[Cl-] (stereo not shown) [Comparative Example 1, bis(2,3-bis(tert-butylmethylphosphino)quinoxaline)gold(I) chloride] |  |  |  |  |  |  | 25.5
4 | bis[(R,R)-1,2-bis(t-butylmethylphosphino)benzene]gold(I) chloride [Example 1] | 1400 | 95 | 66 | 280 | 250 | 250 | 
